Experimental data reported in PubChem BioAssay (NCI).
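Briefly, cells in 96-well plates were exposed to five compound concentrations for 48 h, and endpoints were estimated by linear interpolation. Abbreviation: GI50, concentration required for 50% inhibition of growth. At the TGI there is no net growth.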

What was measured:
Test in all cases: NCI anticancer screen, dose series, 48 h
HT29 colon = system: HT29 colon
UACC-62 melanoma = system: UACC-62 melanoma
KM12 colon = system: KM12 colon
NCI-H23 lung = system: NCI-H23 lung
OVCAR-4 ovarian = system: OVCAR-4 ovarian
OVCAR-8 ovarian = system: OVCAR-8 ovarian
786-0 renal = system: 786-0 renal
TK-10 renal = system: TK-10 renal
CCRF-CEM leukemia = system: CCRF-CEM leukemia
SK-MEL-28 melanoma = system: SK-MEL-28 melanoma

COc1cc(F)c(F)c(Nc2ccc(I)cc2F)c1NS(=O)(=O)C1(CC(O)CO)CC1 (centres undefined) showed a GI50 (HT29 colon) of 4.5 µM, a TGI (HT29 colon) of 22.5 µM and a GI50 (UACC-62 melanoma) of 1.96 µM. The TGI (UACC-62 melanoma) was 9.81 µM, the GI50 (KM12 colon) was 13.3 µM and the TGI (KM12 colon) was 30.9 µM. It also gave a GI50 (NCI-H23 lung) of 12.1 µM, a TGI (NCI-H23 lung) of 36.4 µM and a GI50 (OVCAR-4 ovarian) of 16.6 µM. The TGI (OVCAR-4 ovarian) was over 91.9 µM, the GI50 (OVCAR-8 ovarian) was 18.7 µM and the TGI (OVCAR-8 ovarian) was 61 µM. The GI50 (786-0 renal) was 16.8 µM, the TGI (786-0 renal) was 38.7 µM and the GI50 (TK-10 renal) was 14.9 µM. It also gave a TGI (TK-10 renal) of 72.1 µM, a GI50 (CCRF-CEM leukemia) of 19.8 µM and a TGI (CCRF-CEM leukemia) of over 72.3 µM. The GI50 (SK-MEL-28 melanoma) was 3.02 µM and the TGI (SK-MEL-28 melanoma) was 13.7 µM.
Molecule COC(=O)C(=O)C(C(=O)C(=O)Nc1cc(C)ccc1C)c1nc2ccccc2[nH]c1=O (centres undefined) has a TGI (HT29 colon) of over 100 µM, a TGI (UACC-62 melanoma) of over 100 µM and a TGI (KM12 colon) of over 100 µM. It also gave a TGI (NCI-H23 lung) of over 100 µM, a TGI (OVCAR-4 ovarian) of over 100 µM and a TGI (OVCAR-8 ovarian) of over 100 µM. The TGI (786-0 renal) was over 100 µM, the TGI (TK-10 renal) was over 100 µM and the TGI (CCRF-CEM leukemia) was over 100 µM. It also gave a TGI (SK-MEL-28 melanoma) of over 100 µM.
Molecule Oc1ccccc1/C=N\NC(=S)Nc1ccc(F)cc1 has a GI50 (HT29 colon) of 4.49 µM, a TGI (HT29 colon) of 25 µM and a GI50 (UACC-62 melanoma) of 0.95 µM. The TGI (UACC-62 melanoma) was 4 µM, the GI50 (KM12 colon) was 0.799 µM and the TGI (KM12 colon) was 45 µM. It also gave a GI50 (NCI-H23 lung) of 2.37 µM, a TGI (NCI-H23 lung) of over 100 µM and a GI50 (OVCAR-4 ovarian) of 0.462 µM. For the same molecule, the TGI (OVCAR-4 ovarian) was 49.4 µM, the GI50 (OVCAR-8 ovarian) was 1.22 µM and the TGI (OVCAR-8 ovarian) was over 63.1 µM. For the same molecule, the GI50 (786-0 renal) was 3.38 µM, the TGI (786-0 renal) was over 100 µM and the GI50 (TK-10 renal) was 6.83 µM. It also gave a TGI (TK-10 renal) of over 100 µM, a GI50 (CCRF-CEM leukemia) of 0.396 µM and a GI50 (SK-MEL-28 melanoma) of 2 µM. The TGI (SK-MEL-28 melanoma) was over 100 µM.
With Nc1ncc(CN2CCCC2)c(-c2ccccc2O)n1 the TGI (HT29 colon) was over 750 µM, the TGI (UACC-62 melanoma) was over 750 µM and the TGI (KM12 colon) was over 750 µM. For the same molecule, the TGI (NCI-H23 lung) was over 750 µM, the TGI (OVCAR-4 ovarian) was over 750 µM and the TGI (OVCAR-8 ovarian) was over 750 µM. For the same molecule, the TGI (786-0 renal) was over 750 µM, the TGI (TK-10 renal) was over 750 µM and the GI50 (CCRF-CEM leukemia) was over 750 µM. It also gave a TGI (SK-MEL-28 melanoma) of over 750 µM.
With CC/C(=C/c1ccc(OC)cc1)[N+](=O)[O-] the GI50 (HT29 colon) was 2.71 µM, the TGI (HT29 colon) was 7.12 µM and the GI50 (UACC-62 melanoma) was 2.04 µM. The TGI (UACC-62 melanoma) was 4.67 µM, the GI50 (KM12 colon) was 2.24 µM and the TGI (KM12 colon) was 5.47 µM. It also gave a GI50 (NCI-H23 lung) of 2.15 µM, a TGI (NCI-H23 lung) of 5.74 µM and a GI50 (OVCAR-4 ovarian) of 3.15 µM. For the same molecule, the TGI (OVCAR-4 ovarian) was 12.1 µM, the GI50 (OVCAR-8 ovarian) was 2.23 µM and the TGI (OVCAR-8 ovarian) was 4.98 µM. For the same molecule, the GI50 (786-0 renal) was 1.7 µM, the TGI (786-0 renal) was 3.14 µM and the GI50 (TK-10 renal) was 1.75 µM. It also gave a TGI (TK-10 renal) of 3.28 µM, a GI50 (CCRF-CEM leukemia) of 1.96 µM and a TGI (CCRF-CEM leukemia) of 5.72 µM. It also gave a GI50 (SK-MEL-28 melanoma) of 1.68 µM and a TGI (SK-MEL-28 melanoma) of 3.44 µM.
O=C(CC1(O)C(=O)Nc2ccc(Cl)cc21)c1ccc(C(=O)NCC2CCC3(CC2)OOC2(CCCCC2)OO3)cc1 (centres undefined) showed a GI50 (HT29 colon) of 3.19 µM, a TGI (HT29 colon) of 11.2 µM and a GI50 (UACC-62 melanoma) of 5.05 µM. It also gave a TGI (UACC-62 melanoma) of 27.6 µM, a GI50 (KM12 colon) of 1.77 µM and a TGI (KM12 colon) of 5.22 µM. The GI50 (NCI-H23 lung) was 1.72 µM, the TGI (NCI-H23 lung) was 21.3 µM and the GI50 (OVCAR-4 ovarian) was 2.54 µM. For the same molecule, the TGI (OVCAR-4 ovarian) was 18.3 µM, the GI50 (OVCAR-8 ovarian) was 2.68 µM and the TGI (OVCAR-8 ovarian) was 11.6 µM. The GI50 (786-0 renal) was 0.535 µM, the TGI (786-0 renal) was 1.86 µM and the GI50 (TK-10 renal) was 1.78 µM. For the same molecule, the TGI (TK-10 renal) was 3.28 µM, the GI50 (CCRF-CEM leukemia) was 1.22 µM and the TGI (CCRF-CEM leukemia) was 3.99 µM. For the same molecule, the GI50 (SK-MEL-28 melanoma) was 3.33 µM and the TGI (SK-MEL-28 melanoma) was 17.9 µM.
